Read-outs that look alike come from different tables or passages of the source.
How the values were obtained:
[1] = target: T1, Gal4‐NOR‐1 (human NOR‐1 LBD) (Homo sapiens, UniProt Q92570); test: Gal4 hybrid reporter gene assay for NOR‐1 activity in HEK293T cells; type: cell-based; settings: for activity on NOR‐1 / NOR‐1 activity: Gal4‐NOR‐1, 100 μM; for IC50: read-out: IC50 (NOR‐1), inverse agonism; for remaining NOR‐1 activity: Gal4‐NOR‐1, remaining activity at maximum inverse agonist effect; for type of NOR‐1 modulation: Gal4‐NOR‐1
T1 construct: coding for the hinge region and LBD of the canonical isoform of NOR‐1; expressed in transfected cells; host or cells: HEK293T
T1 sequence (Q92570 394-623 limits assumed): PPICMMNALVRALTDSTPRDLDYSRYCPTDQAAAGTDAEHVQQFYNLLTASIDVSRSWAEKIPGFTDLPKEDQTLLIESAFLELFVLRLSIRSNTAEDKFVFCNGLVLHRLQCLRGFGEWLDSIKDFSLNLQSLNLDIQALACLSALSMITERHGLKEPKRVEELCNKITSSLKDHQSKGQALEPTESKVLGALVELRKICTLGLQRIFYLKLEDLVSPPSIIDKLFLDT
Procedure: The screening assay was based on the Gal4 hybrid system[13] and employed a chimeric receptor composed of the human NOR‐1 LBD and the Gal4 DNA binding domain from yeast. Firefly luciferase under the control of five tandem repeats of the Gal4 response element served as reporter gene and constitutively expressed renilla luciferase was used for normalization and toxicity monitoring. Control experiments were conducted with the ligand‐independent transcriptional inducer Gal4‐VP16[14, 15] (replacing Gal4‐NOR‐1) to exclude non‐specific effects.
Hybrid reporter gene assays. The reporter gene assay was performed as reported previously[25] in HEK293T cells in 96‐well format using pFR‐Luc (Stratagene, La Jolla, CA, USA; reporter), pRL‐SV40 (Promega, Madison, WI, USA; control) and the Gal4‐NOR‐1 fusion receptor plasmid pFA‐CMV‐hNOR‐1‐LBD coding for the hinge region and LBD of the canonical isoform of NOR‐1 or pECE‐SV40‐Gal4‐VP16[15] […] In the primary screening, the core set of the Prestwick Drug Fragments Library was tested at 100 μM in two biologically independent repeats. All other samples were tested in duplicates in at least three biologically independent repeats. Luminescence was measured with a Spark 10 M luminometer (Tecan Group AG, Mannedorf, Switzerland), firefly luciferase data were divided by Renilla luciferase data and multiplied by 1000 to obtain relative light units (RLU). Fold activation was obtained by dividing the mean RLU of a test compound at a respective concentration by the mean RLU of untreated control. Dose‐response curves were fitted with the equation “[Agonist]/[Inhibitor] vs. response (three parameters)” in GraphPad Prism (version 7.00, GraphPad Software, La Jolla, CA, USA).

[2] = system: MYC mRNA expression in HeLa cells; type: cell-based; settings: 16 h, 1 at 100 and 300 μM, 19 at 10 and 30 μM, GAPDH as reference gene, n=4
Description: The following primers were used: GAPDH: fw: [NT].

Gal4‐VP16 = target: T2, Gal4‐VP16 (Saccharomyces cerevisiae, UniProt P04386); test: Gal4‐VP16 control reporter gene assay in HEK293T cells; type: cell-based; settings: 100 μM
T2 construct: host or cells: HEK293T
Description: To rapidly probe druggability of NOR‐1 and identify potential ligand scaffolds, we have established a robust reporter gene assay to monitor NOR‐1 activity and screened a medium size fragment library for NOR‐1 modulation. The screening assay was based on the Gal4 hybrid system[13] and employed a chimeric receptor composed of the human NOR‐1 LBD and the Gal4 DNA binding domain from yeast. Firefly luciferase under the control of five tandem repeats of the Gal4 response element served as reporter gene and constitutively expressed renilla luciferase was used for normalization and toxicity monitoring. Control experiments were conducted with the ligand‐independent transcriptional inducer Gal4‐VP16[14, 15] (replacing Gal4‐NOR‐1) to exclude non‐specific effects. The commercially available fragment screening library (core set of the Prestwick drug fragments library) comprised 480 compounds with favorable fragment properties (Figure 1a) and offered high structural diversity as illustrated by low average pairwise Jaccard‐Tanimoto similarity computed on Morgan fingerprints[16] (median 0.13; Figure 1b) and by a total of 77 unique Murcko scaffolds.[17] […]
Hybrid reporter gene assays. […] Luminescence was measured with a Spark 10 M luminometer (Tecan Group AG, Mannedorf, Switzerland), firefly luciferase data were divided by Renilla luciferase data and multiplied by 1000 to obtain relative light units (RLU). […]

[3] = target: T3, interaction of NOR‐1 with NCoR1 (Homo sapiens, UniProt Q92570); test: Reporter gene assay for NOR‐1 interaction with NCoR1 in HEK293T cells; type: cell-based; settings: n=3, read-out: IC50, antagonism of NOR‐1 interaction with NCoR1
T3 construct: coding for the hinge region and LBD of the canonical isoform of NOR‐1; expressed in transfected cells; host or cells: HEK293T
T3 sequence (Q92570 394-623 limits assumed): T1 sequence (Q92570 394-623 limits assumed)
Procedure: (§1) Reporter gene assays for NOR‐1 interactions with NCoR1 and SMRT. The interaction of NOR‐1 with NCoR1 and SMRT was studied in reporter gene assays in HEK293T cells using pFR‐Luc, pRL‐SV40 and pFA‐CMV‐hNOR‐1‐LBD in combination with either pFTI‐CMV‐NCoR1 or pFTI‐CMV‐SMRT, which code for fusion proteins composed of the transcriptional inducer VP16 and fragments of the nuclear receptor co‐regulators NCoR1 or SMRT comprising one interaction motif.[29] […] After 24 h, the medium was changed to Opti‐MEM without supplements and the cells were transiently transfected with above‐described plasmids using Lipofectamine LTX reagent (Invitrogen). […] After 16 h incubation, cells were assayed for luciferase activity using the Dual‐Glo Luciferase Assay System (Promega) and luminescence was measured with a Spark 10 M luminometer (Tecan Group Ltd). Each sample was tested in duplicates in three independent experiments. Firefly luciferase data were divided by renilla luciferase data to obtain relative light units (RLU) and RLU of each test sample were normalized to the negative control (0.1 % DMSO).

[4] = target: T4, interaction of NOR‐1 with SMRT (Homo sapiens, UniProt Q92570); test: Reporter gene assay for NOR‐1 interaction with SMRT in HEK293T cells; type: cell-based; settings: n=3, read-out: IC50, antagonism of NOR‐1 interaction with SMRT
T4 construct: coding for the hinge region and LBD of the canonical isoform of NOR‐1; expressed in transfected cells; host or cells: HEK293T
T4 sequence (Q92570 394-623 limits assumed): T1 sequence (Q92570 394-623 limits assumed)
Procedure: as §1

NOR‐1 = settings: cited from earlier work

T2 sequence (P04386 1-147, added parts left off): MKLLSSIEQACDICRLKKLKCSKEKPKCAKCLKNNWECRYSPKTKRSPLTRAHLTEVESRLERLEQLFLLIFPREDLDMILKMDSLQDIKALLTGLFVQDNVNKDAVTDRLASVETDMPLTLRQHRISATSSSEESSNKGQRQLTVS

Oc1ccc(N2CCNCC2)cc1 [compound 4]
activity on NOR‐1 [1]: inactive (100 μM)

COC(=O)c1c[nH]c2ccc(C)cc12 [compound 17]
IC50 ([1]; Gal4‐NOR‐1, HEK293T cells, n=4): 35 ± 8 µM | remaining NOR‐1 activity ([1]; n=4): 2±7%

COC(=O)c1c[nH]c2ccccc12 [compound 1]
effect on MYC expression [2]: induced MYC expression | type of NOR‐1 modulation [1]: inverse agonist | IC50 ([1]; Gal4‐NOR‐1, HEK293T cells, n=4): 47 ± 8 µM | remaining NOR‐1 activity ([1]; n=4): 47±6% | effect on Gal4‐VP16 induced reporter activity (Gal4‐VP16): no suppression

COC(=O)c1c[nH]c2ccc(OC)cc12 [compound 18]
IC50 ([1]; Gal4‐NOR‐1, HEK293T cells, n=4): 43 ± 5 µM | remaining NOR‐1 activity ([1]; n=4): 13±4%

COC(=O)c1c(Cl)[nH]c2ccccc12 [compound 12]
IC50 ([1]; Gal4‐NOR‐1, HEK293T cells, n=4): > 100 µM

COC(=O)c1c[nH]c2cc(Cl)ccc12 [compound 15]
IC50 ([1]; Gal4‐NOR‐1, HEK293T cells, n=4): > 100 µM

COC(=O)c1c[nH]c2ccc(Br)cc12 [compound 19, Methyl 5‐bromoindole‐3‐carboxylate]
effect on MYC expression [2]: induced MYC expression | IC50 [3]: 12 ± 3 µM | IC50 ([1]; Gal4‐NOR‐1, HEK293T cells, n=4): 8 ± 1 µM | remaining NOR‐1 activity ([1]; n=4): 7±3% | IC50 [4]: 9 ± 2 µM

COc1ccc(N2CCNCC2)cc1 [compound 9, 4‐Methoxyphenylpiperazine]
activity on NOR‐1 [1]: inactive (100 μM)

COC(=O)c1cn(-c2ccccc2)c2ccccc12 [compound 11]
activity on NOR‐1 [1]: inactive

COC(=O)c1c[nH]c2c(Cl)cccc12 [compound 16]
IC50 ([1]; Gal4‐NOR‐1, HEK293T cells, n=4): > 100 µM

CCCCC[C@H](O)/C=C/[C@H]1C=CC(=O)[C@@H]1C/C=C\CCCC(=O)O [prostaglandin A2]
effect on NOR‐1 activity (NOR‐1; through direct interaction with its LBD): weakly activates NOR‐1

COC(=O)c1c[nH]c2ccc(Cl)cc12 [compound 14]
IC50 ([1]; Gal4‐NOR‐1, HEK293T cells, n=4): 14 ± 2 µM | remaining NOR‐1 activity ([1]; n=4): 12±4% | improvement in inverse NOR‐1 agonist potency ([1]; versus lead 1): 3.5 fold

COC(=O)c1c[nH]c2ccc(-c3ccccc3)cc12 [compound 20]
IC50 ([1]; Gal4‐NOR‐1, HEK293T cells, n=4): 4 ± 2 µM | remaining NOR‐1 activity ([1]; n=4): 49±5%

Sc1ncnc2nc[nH]c12 [6‐mercaptopurine]
binding to the NOR‐1 ligand binding domain (LBD) (NOR‐1): does not bind | effect on NOR‐1 activity (NOR‐1; requires the N‐terminal AF‐1 of NOR‐1): enhanced NOR‐1 activity

Nc1ccc(N2CCNCC2)cc1 [compound 8, 4‐aminophenylpiperazine]
type of NOR‐1 modulation [1]: weak agonists | NOR‐1 activity ([1]; n=4): 124±2 % NOR‐1 activity (100 μM)

CC(=O)N1CCN(c2ccccc2)CC1 [compound 5]
NOR‐1 activity ([1]; n=4): 93±1 % NOR‐1 activity (100 μM)

COC(=O)c1c[nH]c2cccc(Cl)c12 [compound 13]
IC50 ([1]; Gal4‐NOR‐1, HEK293T cells, n=4): > 100 µM

CC(=O)N1CCN(c2ccc(O)cc2)CC1 [compound 2]
type of NOR‐1 modulation [1]: inverse agonist | IC50 ([1]; Gal4‐NOR‐1, HEK293T cells, n=4): 73 µM | remaining NOR‐1 activity ([1]; n=4): 64±7% | effect on Gal4‐VP16 induced reporter activity (Gal4‐VP16): no suppression

O=C(O)CCc1ccc(Cl)cc1 [compound 3]
type of NOR‐1 modulation [1]: agonist | EC50 ([1]; Gal4‐NOR‐1, HEK293T cells, n=4, read-out: EC50 (NOR‐1), agonism): 44 ± 6 µM | max. activation of NOR‐1 ([1]; Gal4‐NOR‐1, n=4): 132±4% | effect of added inverse agonist 1 on the EC50 value of 3 (competition experiment) ([1]; fixed concentration of 1 (100 μM), n=3): did not affect the EC50 value

CN1CCN(c2ccc(N)cc2)CC1 [compound 10]
activity on NOR‐1 [1]: inactive (100 μM)

Clc1ccc(N2CCNCC2)cc1 [compound 6, 4‐chlorophenylpiperazine]
type of NOR‐1 modulation [1]: weak agonists | NOR‐1 activity ([1]; n=4): 120±6 % NOR‐1 activity (100 μM)

From paper PMC9542104, “Druggability Evaluation of the Neuron Derived Orphan Receptor (NOR‐1) Reveals Inverse NOR‐1 Agonists” (Chemmedchem, 2022)
